Results on eight compounds are retold here after publication PMC6616564, “Identification of ryuvidine as a KDM5A inhibitor” (Scientific Reports, 2019).

Holding throughout (type): biochemical
The target of test [1] is T1, KDM5A (His-tagged KDM5A 1-797) (Homo sapiens, UniProt P29375).
T1 construct: residues 1-797, C-terminally truncated, N-terminal His6 tag, Sf9 baculovirus, HisTrap purified
T1 sequence (P29375 1-797): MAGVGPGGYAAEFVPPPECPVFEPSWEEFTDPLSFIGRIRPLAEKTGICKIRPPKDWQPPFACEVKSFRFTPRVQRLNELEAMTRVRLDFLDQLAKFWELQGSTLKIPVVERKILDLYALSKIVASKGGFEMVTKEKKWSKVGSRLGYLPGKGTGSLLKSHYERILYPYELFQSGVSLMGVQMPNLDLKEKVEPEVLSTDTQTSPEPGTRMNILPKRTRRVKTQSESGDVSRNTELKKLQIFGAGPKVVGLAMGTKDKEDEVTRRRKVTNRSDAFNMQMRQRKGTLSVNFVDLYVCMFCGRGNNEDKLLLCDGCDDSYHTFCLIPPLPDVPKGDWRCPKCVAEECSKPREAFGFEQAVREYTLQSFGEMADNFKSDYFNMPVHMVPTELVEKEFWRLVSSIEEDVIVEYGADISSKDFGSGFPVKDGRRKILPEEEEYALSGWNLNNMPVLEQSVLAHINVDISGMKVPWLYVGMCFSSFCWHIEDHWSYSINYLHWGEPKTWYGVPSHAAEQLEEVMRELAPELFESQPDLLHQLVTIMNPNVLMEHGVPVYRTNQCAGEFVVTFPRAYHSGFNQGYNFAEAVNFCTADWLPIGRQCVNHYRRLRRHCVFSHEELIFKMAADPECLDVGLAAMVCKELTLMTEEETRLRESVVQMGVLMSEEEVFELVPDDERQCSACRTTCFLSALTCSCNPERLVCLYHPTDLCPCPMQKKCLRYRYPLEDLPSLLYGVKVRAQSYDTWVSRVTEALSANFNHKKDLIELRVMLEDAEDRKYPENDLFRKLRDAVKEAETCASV
Kind of test: AlphaScreen H3K4me3 demethylation. The text has this:
AlphaScreen H3K4me3 demethylation on KDM5A (His-tagged KDM5A 1-797)

For test [2], the target named is T2, KDM5C (His-tagged KDM5C 1-839) (Homo sapiens, UniProt P41229).
T2 construct: residues 1-839, C-terminally truncated, N-terminal His6 tag, Sf9 baculovirus, HisTrap purified
T2 sequence (P41229 1-839): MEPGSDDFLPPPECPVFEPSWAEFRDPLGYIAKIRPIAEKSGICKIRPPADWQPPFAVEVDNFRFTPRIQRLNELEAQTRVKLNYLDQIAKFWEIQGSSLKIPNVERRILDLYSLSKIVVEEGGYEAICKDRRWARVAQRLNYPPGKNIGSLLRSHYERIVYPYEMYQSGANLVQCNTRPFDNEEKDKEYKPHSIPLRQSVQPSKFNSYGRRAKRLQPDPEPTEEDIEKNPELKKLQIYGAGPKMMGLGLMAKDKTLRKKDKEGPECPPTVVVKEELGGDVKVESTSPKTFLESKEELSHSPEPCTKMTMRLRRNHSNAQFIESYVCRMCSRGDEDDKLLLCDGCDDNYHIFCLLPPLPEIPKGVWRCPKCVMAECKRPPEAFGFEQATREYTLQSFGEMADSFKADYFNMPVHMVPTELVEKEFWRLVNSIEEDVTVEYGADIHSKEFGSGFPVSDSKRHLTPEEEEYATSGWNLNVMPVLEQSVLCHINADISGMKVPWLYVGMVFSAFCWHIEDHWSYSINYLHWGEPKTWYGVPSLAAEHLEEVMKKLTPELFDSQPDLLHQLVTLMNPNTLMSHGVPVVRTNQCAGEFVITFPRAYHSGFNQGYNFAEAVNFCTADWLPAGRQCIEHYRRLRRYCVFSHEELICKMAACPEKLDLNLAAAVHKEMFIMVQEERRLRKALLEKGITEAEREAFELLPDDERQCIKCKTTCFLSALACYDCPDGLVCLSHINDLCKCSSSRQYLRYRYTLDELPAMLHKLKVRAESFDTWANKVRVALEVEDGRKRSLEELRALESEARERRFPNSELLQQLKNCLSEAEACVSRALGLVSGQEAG
The test can be described thus: MALDI-TOF MS demethylation assay. An excerpt:
MALDI-TOF MS demethylation assay on KDM5C (His-tagged KDM5C 1-839)

Test [3] concerns the target T3, KDM5B (His-tagged KDM5B 1-769) (Homo sapiens, UniProt Q9UGL1).
T3 construct: residues 1-769, C-terminally truncated, N-terminal His6 tag, Sf9 baculovirus, HisTrap purified
T3 sequence (Q9UGL1 1-769): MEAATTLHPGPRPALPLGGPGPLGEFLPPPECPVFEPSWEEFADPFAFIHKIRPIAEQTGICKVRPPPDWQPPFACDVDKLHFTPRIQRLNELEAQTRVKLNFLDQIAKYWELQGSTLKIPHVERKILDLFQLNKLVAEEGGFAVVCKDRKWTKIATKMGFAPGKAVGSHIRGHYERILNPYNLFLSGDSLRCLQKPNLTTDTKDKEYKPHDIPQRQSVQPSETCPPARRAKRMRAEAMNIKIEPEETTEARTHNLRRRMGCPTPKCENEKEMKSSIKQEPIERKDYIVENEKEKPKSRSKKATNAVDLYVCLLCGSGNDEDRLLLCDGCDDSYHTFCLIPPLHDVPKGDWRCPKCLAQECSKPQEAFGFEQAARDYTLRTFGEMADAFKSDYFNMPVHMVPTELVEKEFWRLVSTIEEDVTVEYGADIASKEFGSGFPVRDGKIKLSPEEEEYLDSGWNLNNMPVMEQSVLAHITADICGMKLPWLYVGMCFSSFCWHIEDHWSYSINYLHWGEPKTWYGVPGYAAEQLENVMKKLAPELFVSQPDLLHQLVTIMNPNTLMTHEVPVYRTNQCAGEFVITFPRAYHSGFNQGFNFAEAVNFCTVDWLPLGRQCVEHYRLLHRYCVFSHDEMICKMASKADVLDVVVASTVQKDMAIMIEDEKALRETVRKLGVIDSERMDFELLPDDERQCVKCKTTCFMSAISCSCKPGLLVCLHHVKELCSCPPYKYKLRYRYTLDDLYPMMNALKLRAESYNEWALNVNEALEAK
Kind of test: MALDI-TOF MS demethylation assay. The text has this: MALDI-TOF MS demethylation assay on KDM5B (His-tagged KDM5B 1-769)

The target of test [4] is T4, LSD1 (His-tagged human full-length LSD1) (Homo sapiens, UniProt O60341).
T4 construct: gene KDM1A
The test can be described thus: MALDI-TOF MS demethylation assay. Particulars: no inhibition at 50 μM; 30 μM H3K4me2 peptide, pH 7.5, 37 °C. An excerpt: MALDI-TOF MS demethylation assay on LSD1 (His-tagged human full-length LSD1)

Test [5] concerns the target T5, LSD2 (His-tagged ΔN25 human LSD2) (Homo sapiens, UniProt Q8NB78).
T5 construct: gene KDM1B
T5 sequence (Q8NB78 26-822): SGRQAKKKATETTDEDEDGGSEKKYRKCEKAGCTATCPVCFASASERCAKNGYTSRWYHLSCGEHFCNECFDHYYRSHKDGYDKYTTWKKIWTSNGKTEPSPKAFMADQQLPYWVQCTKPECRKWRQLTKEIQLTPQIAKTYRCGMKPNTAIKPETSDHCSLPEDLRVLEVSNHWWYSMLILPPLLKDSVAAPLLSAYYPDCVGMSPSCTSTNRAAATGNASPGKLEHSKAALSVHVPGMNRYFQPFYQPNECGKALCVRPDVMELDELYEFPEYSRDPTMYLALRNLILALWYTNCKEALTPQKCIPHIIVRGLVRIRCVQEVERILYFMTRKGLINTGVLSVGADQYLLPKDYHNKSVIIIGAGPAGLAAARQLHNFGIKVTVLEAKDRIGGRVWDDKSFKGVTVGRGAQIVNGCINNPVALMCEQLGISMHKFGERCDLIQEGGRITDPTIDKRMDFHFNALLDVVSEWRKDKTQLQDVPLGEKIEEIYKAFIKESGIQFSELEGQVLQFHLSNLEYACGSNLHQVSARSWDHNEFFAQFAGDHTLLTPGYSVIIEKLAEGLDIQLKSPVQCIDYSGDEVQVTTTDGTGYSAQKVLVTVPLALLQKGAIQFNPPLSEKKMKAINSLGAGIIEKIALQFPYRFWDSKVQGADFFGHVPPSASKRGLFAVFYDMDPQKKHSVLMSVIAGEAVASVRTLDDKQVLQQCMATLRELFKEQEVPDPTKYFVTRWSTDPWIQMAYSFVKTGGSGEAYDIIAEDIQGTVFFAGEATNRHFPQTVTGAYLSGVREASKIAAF
Kind of test: MALDI-TOF MS demethylation assay. To be noted: no inhibition at 50 μM; 10 μM H3K4me2 peptide, pH 8.5, 37 °C. An excerpt:
MALDI-TOF MS demethylation assay on LSD2 (His-tagged ΔN25 human LSD2)

Like-named read-outs stand apart in the source and are kept apart here.

Take `Cc1cc2nc3ccc(N(C)C)cc3[s+]c2cc1N` [Tolonium Chloride]: the IC50 in test [1] (read-out: IC50 (μM)^a) worked out at 1.7 µM. On the same count and under the same terms, to `O=[N+]([O-])c1ccc(O)c2ncccc12` [Nitroxoline] belongs 5 µM. In the case of `CN(C)c1ccc2nc3ccc(=[N+](C)C)cc-3sc2c1` [Methylene Blue], in test [1] (read-out: IC50 (μM)^a), the IC50 came to 1.1 µM.

`C[CH2][Hg][S]c1ccccc1C(=O)O` [Thimerosal]: in test [1], the IC50 amounted to 0.13 µM. On to `Nc1ccc2cc3ccc(N)cc3nc2c1` [Proflavine Hemisulfate], for which the IC50 in test [1] (read-out: IC50 (μM)^a) worked out at 1.8 µM.

As to `Cc1ccc(NC2=CC(=O)c3sc(C)nc3C2=O)cc1` [Ryuvidine], the IC50 was 1.4 µM in test [1] (read-out: IC50 (μM)^a); 8730 ± 1800 nM in test [2]; 26 ± 10 nM in test [3]; more than 50000 nM in test [4]; more than 50000 nM in test [5]. `CC1(C)C(=O)N=C2C1=C(O)C(=O)c1ccccc12` [BVT948]: in test [1] (read-out: IC50 (μM)^a), the IC50 was 2.6 µM. The same measure, in the same setting: to `O=C1C(SCCO)=C(SCCO)C(=O)c2ccccc21` [NSC95397] belongs 0.055 µM.
